In general, Km refers to the concentration of substrate that gives half-maximal velocity. As usually defined, the kcat is the number of substrate molecules converted per active site and unit of time at saturation. As a reminder, the kcat/Km is the second-order rate constant that governs catalysis at low substrate concentration. In general, kinact/KI refers to the maximal inactivation rate divided by the concentration that gives half of it.

Here are results for 18 compounds from patent US20240150396A1 (The Texas A&M University System, priority 2021, published 2024).

Where “and” joins values, the source holds several entries; their conditions need not be identical. Equal values may be shown once. Read-outs that look alike come from different tables or passages of the source. Non-standard residues stand in square brackets, D forms with d. Residues, ends and D or L forms follow the SMILES beside them. *: point of attachment. hPhe = N[CH](CCc1ccccc1)C(=O)O; 4Pal = N[CH](Cc1ccncc1)C(=O)O; AMC = Cc1cc(=O)oc2cc(N*)ccc12; Cbz = O=C(OCc1ccccc1)*

Experiment [1] deals with T1, cruzain (Trypanosoma cruzi, UniProt P25779). Description: biochemical. Particulars: pH 7.5; for kinact/KI: irreversible inactivation. How it is done:
All enzyme assays were performed at 25° C. Initial rates of the peptidolytic reaction catalyzed by cruzain were measured by monitoring the fluorescence generated by cleavage of the dipeptide-AMC bond. Assays were conducted in 96-well plates (Greiner; flat-bottom, clear black plates) in a total volume of 250 μL, containing either 50 mM MES (pH 7.5), 50 mM TAPSO, 100 mM DEA, 1 mM CHAPS, 1 mM Na2EDTA, 5 mM DTT, and 10% DMSO (v/v) or 50 mM sodium acetate (pH 5.5), 50 mM MES, 100 mM TEA, 1 mM CHAPS, 1 mM Na2EDTA, 5 mM DTT, and 10% DMSO (v/v). Substrates were dissolved in 100% DMSO and were then diluted 10-fold such that when added to reaction mixtures, final DMSO concentration was 10% (v/v). […] Fluorescence was measured on either a SpectraMax M5 (Molecular Devices) or a Synergy HTX (BioTek, Winooski, VT) microplate reader (λex=360 nm, λem=460 nm). Initial rates were determined from continuous kinetic time courses and calculated from the earliest time points, typically at less than 10 min.
(2) Enzyme and compound were preincubated over extended periods of time, and then aliquots were removed and diluted 50-fold to 100-fold into reaction mixtures containing 10 μM Cbz-Phe-Arg-AMC, followed by the assessment of the resulting time courses.
Data for time-dependent inhibition were fitted by several methods.
Values of kobs versus [inhibitor] were then replotted and fitted to eq 4 for which k3 and k4 represent the respective rates of formation and dissolution of the EI* complex as depicted in FIG. 9.
In addition, time-course data were fitted globally by two methods. First, expressions for vs, vi, and kobs were substituted into eq 3 to generate eq 6, which was used to fit time-course data at all concentrations of inhibitors simultaneously. Second, time-course data were fitted using KinTek Explorer as either a single-binding step model with the two kinetic parameters k3/Ki and k4 or a two-step binding mechanism as shown in FIG. 9 from which rate constants k1-k4 are determined (Supporting Information).
Enzyme Assays. The preparation of cruzain and 3CL^pro were described in previous publications.^8, 34 The evaluation of inhibitors was modified from our lab protocol and described briefly as follows.^35 All enzyme assays were conducted in 96-well, clear bottom, black plates at 25° C., and fluorescence emanating from product formation was measured using either a SpectraMax M5 (Molecular Devices) or a Synergy HTX (Biotek) microplate reader, with excitation at λex=360 nm and emission at λem=460 nm. […] Reactions were started with addition of enzyme (typically, to a final concentration of 0.2 nM for cruzain or 40 nM for 3CL^pro), and the time courses were recorded for 0.5-1 h.
Kinetic Data Analysis. All time-course data were fitted to eq. 1, wherein P is the fluorescence generated by formation of AMC or liberated ACC, C is the background constant, vi and vs are respectively initial-state and steady-state reaction rates, t is time, and kobs is the observed rate of conversion of the initial inhibited rate to the final inhibited rate.^46
Overall inhibition constants (Ki* values) were obtained by fitting vs/v0 to eq. 4, wherein vs and v0 are steady-state reaction rates in the presence and absence of inhibitor respectively, [S] and [I] represent the fixed concentration of substrate and variable inhibitor, Km is the Michaelis constant of the substrate.

Experiment [2] addresses T1, cruzain. Briefly: Kinetic parameters of peptide substrates for cruzain. Particulars: for Km / kcat / kcat/Km: pH 7.5, 25° C., 10% DMSO; for kcat rel: relative to Cbz-Phe-Arg-AMC. The class given is biochemical. On the procedure:
All enzyme assays were performed at 25° C. Initial rates of the peptidolytic reaction catalyzed by cruzain were measured by monitoring the fluorescence generated by cleavage of the dipeptide-AMC bond. Assays were conducted in 96-well plates (Greiner; flat-bottom, clear black plates) in a total volume of 250 μL, containing either 50 mM MES (pH 7.5), 50 mM TAPSO, 100 mM DEA, 1 mM CHAPS, 1 mM Na2EDTA, 5 mM DTT, and 10% DMSO (v/v) or 50 mM sodium acetate (pH 5.5), 50 mM MES, 100 mM TEA, 1 mM CHAPS, 1 mM Na2EDTA, 5 mM DTT, and 10% DMSO (v/v). Substrates were dissolved in 100% DMSO and were then diluted 10-fold such that when added to reaction mixtures, final DMSO concentration was 10% (v/v). Reactions were initiated with the addition of 1-10 μL of cruzain (final concentrations: 0.1-3.0 nM (preincubation studies)). Fluorescence was measured on either a SpectraMax M5 (Molecular Devices) or a Synergy HTX (BioTek, Winooski, VT) microplate reader (λex=360 nm, λem=460 nm). Initial rates were determined from continuous kinetic time courses and calculated from the earliest time points, typically at less than 10 min.
Initial velocity data for cruzain-catalyzed reactions of fluorogenic peptide substrates were determined by fitting to eq 1 using GraphPad Prism 6.0 or SigmaPlot 12.0. For eq 1, kcat is the turnover number, [E]t is the concentration of active sites of cruzain, and Ka is the Michaelis constant for the substrate A. Cruzain concentrations were determined by spectrophotometric analysis of purified sample solutions as described.^44

The mark [3] stands for this setting: obtained >10 minutes following initiation of reaction by addition of enzyme, read-out: Ki* Cruzain.
Where [4] appears, read: apparent initial inhibition constant, 25° C., read-out: Ki.
Where [5] appears, read: apparent tight-binding inhibition constant, 25° C., read-out: Ki*.

T1 sequence (P25779 123-467 limits assumed): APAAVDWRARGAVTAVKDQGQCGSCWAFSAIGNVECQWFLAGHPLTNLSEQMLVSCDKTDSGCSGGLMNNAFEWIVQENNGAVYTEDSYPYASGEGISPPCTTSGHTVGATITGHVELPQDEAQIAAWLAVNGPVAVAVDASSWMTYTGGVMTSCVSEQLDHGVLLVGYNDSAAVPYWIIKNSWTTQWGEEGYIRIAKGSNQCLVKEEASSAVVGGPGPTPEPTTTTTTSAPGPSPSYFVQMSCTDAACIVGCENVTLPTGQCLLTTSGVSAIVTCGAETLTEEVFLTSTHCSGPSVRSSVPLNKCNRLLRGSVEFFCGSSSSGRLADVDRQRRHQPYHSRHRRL

`O=C(N[C@@H](Cc1ccccc1)C(=O)N[C@H](CO)Cc1ccccc1O)OCc1ccccc1` [Compound 51]: in experiment [1] (setting [3]), the Ki is more than 10 µM.

As for `Cc1cc(=O)oc2cc(NC(=O)[C@H](CCc3ccccc3)NC(=O)[C@H](Cc3ccccc3)NC(=O)OCc3ccccc3)ccc12` [Compound S2, Cbz-Phe-hPhe-AMC] (Cbz-Phe-[hPhe]-{AMC}), in experiment [2], the Km was 0.26 ± 0.06 µM; the kcat was found to be 2.0 ± 0.2 s⁻¹; the kcat/Km is 8e+06 M⁻¹ s⁻¹ and 8e+06 ± 2e+06 M⁻¹ s⁻¹; the kcat rel was 0.21.

With `O=C(N[C@@H](Cc1ccccc1)C(=O)N[C@H](/C=C/c1ccncn1)Cc1ccccc1)OCc1ccccc1` [Compound 23, Benzyl ((S)-1-Oxo-3-phenyl-1-(((S,E)-1-phenyl-4-(pyrimidin-4-yl)-but-3-en-2-yl)amino)propan-2-yl)carbamate], the Ki in experiment [1] (setting [4]) is 10.8 ± 1.4 µM; in experiment [1] (setting [5]) it was 1.14 ± 0.07 µM.

`CC(C)C[C@H](NC(=O)OCc1ccccc1)C(=O)N[C@H](/C=C/c1ccccn1)CCc1ccccc1` [Compound 18, Benzyl ((S)-4-Methyl-1-oxo-1-(((S,E)-5-phenyl-1-(pyridin-2-yl)-pent-1-en-3-yl)amino)pentan-2-yl)carbamate]: the values for the Ki in experiment [1] (setting [4]) and in experiment [1] (setting [5]) were 7.8 ± 0.6 µM and 1.42 µM, respectively.

On to `NC(=O)/C=C/[C@H](CCc1ccccc1)NC(=O)[C@H](Cc1ccccc1)NC(=O)OCc1ccccc1` [Compound 3, Benzyl ((S)-1-(((S,E)-6-Amino-6-oxo-1-phenylhex-4-en-3-yl)-amino)-1-oxo-3-phenylpropan-2-yl)carbamate], for which the Ki in experiment [1] (setting [4]) is 3 ± 1 µM. Moreover, in experiment [1] (25° C.), the kinact/KI amounted to 1700 ± 500 M⁻¹ s⁻¹.

Take `Cc1cc(=O)oc2cc(NC(=O)C(Cc3ccncc3)NC(=O)C(Cc3ccccc3)NC(=O)OCc3ccccc3)ccc12` (stereo not drawn) [Compound S5, Cbz-Phe-(4-Pyr)Ala-AMC] (Cbz-Phe-[4Pal]-{AMC}; configuration not given here): in experiment [2], the Michaelis-Menten constant (Km) was 3.7 µM, the turnover number (kcat) was 7.5 ± 0.5 s⁻¹, the kcat/Km was 2e+06 ± 400000 M⁻¹ s⁻¹ and the kcat rel amounted to 0.76.

Turning to `CN1CCN(C(=O)N[C@@H](Cc2ccccc2)C(=O)N[C@H](/C=C/c2ccccn2)CCc2ccccc2)CC1` [Compound 14, 4-Methyl-N—((S)-1-oxo-3-phenyl-1-(((S,E)-5-phenyl-1-(pyridin-2-yl)pent-1-en-3-yl)amino)propan-2-yl)piperazine-1-carboxamide], the Ki in experiment [1] (setting [5]) is 3.4 µM.

As for `Cc1cc(=O)oc2cc(NC(=O)[C@H](CCCN=C(N)N)NC(=O)[C@H](CC(C)C)NC(=O)OCc3ccccc3)ccc12` [Compound S4, Cbz-Leu-Arg-AMC], in experiment [2], the Km was 2.2 ± 0.3 µM, the kcat worked out at 8.4 ± 0.4 s⁻¹, the kcat/Km was 3.8e+06 ± 700000 M⁻¹ s⁻¹ and the kcat rel is on record as 0.88.

For `O=C(N[C@@H](Cc1ccccc1)C(=O)N[C@H](/C=C/S(=O)(=O)c1ccccc1)Cc1ccccc1)OCc1ccccc1` [Compound 1], in experiment [1] (setting [3]), the Ki came out at 0.0036 µM.

Consider `O=C(N[C@@H](Cc1ccccc1)C(=O)N[C@H](/C=C/c1ccncc1)Cc1ccccc1)OCc1ccccc1` [Compound 21, Benzyl ((S)-1-Oxo-3-phenyl-1-(((S,E)-1-phenyl-4-(pyridin-4-yl)-but-3-en-2-yl)amino)propan-2-yl)carbamate], for which the Ki in experiment [1] (setting [5]) amounted to 5.5 ± 0.2 µM.

Turning to `CN1CCN(C(=O)N[C@@H](Cc2ccccc2)C(=O)N[C@H](/C=C/C(N)=O)CCc2ccccc2)CC1` [Compound 4, N—((S)-1-(((S,E)-6-Amino-6-oxo-1-phenylhex-4-en-3-yl)amino)-1-oxo-3-phenylpropan-2-yl)-4-methylpiperazine-1-carboxamide], the Ki in experiment [1] (setting [4]) was determined as 3.4 ± 0.4 µM. In addition, the kinact/KI in experiment [1] (25° C.) was 1900 ± 200 M⁻¹ s⁻¹.

For the compound `C[n+]1ccc(/C=C/[C@H](Cc2ccccc2)NC(=O)[C@H](Cc2ccccc2)NC(=O)OCc2ccccc2)cc1` [Compound 22, 4-((S,E)-3-((S)-2-(((Benzyloxy)carbonyl)amino)-3-phenylpropanamido)-4-phenylbut-1-en-1-yl)-1-methylpyridin-1-ium Iodide], the Ki worked out at 92 ± 5 µM in experiment [1] (setting [4]) and 4 ± 0.1 µM in experiment [1] (setting [5]).

As to “N—((S)-1-(((2S,3S)-3-hydroxy-1,2,3,4-tetrahydronaphthalen-2-yl)amino)-1-oxo-3-phenylpropan-2-yl)-4-methylpiperazine-1-carboxamide and N—((S)-1-(((2R,3R)-3-hydroxy-1,2,3,4-tetrahydronaphthalen-2-yl)amino)-1-oxo-3-phenylpropan-2-yl)-4-methylpiperazine-1-carboxamide [Compound 50]”, the Ki in experiment [1] (setting [5]) and in experiment [1] (setting [3]) was more than 100 µM throughout.

Regarding `Cc1cc(=O)oc2cc(NC(=O)C(CCc3ccccc3)NC(=O)C(CC(C)C)NC(=O)OCc3ccccc3)ccc12` (stereo not drawn) [Compound S3, Cbz-Leu-hPhe-AMC] (Cbz-Leu-[hPhe]-{AMC}; configuration not given here), in experiment [2], the Km came out at 0.8 ± 0.2 µM, the kcat stood at 3.0 ± 0.2 s⁻¹, the kcat/Km turned out to be 4e+06 ± 1e+06 M⁻¹ s⁻¹ and the kcat rel turned out to be 0.21.

Take `Cc1cc(=O)oc2cc(NC(=O)[C@H](CCc3ccccc3)NC(=O)[C@H](Cc3ccncc3)NC(=O)OCc3ccccc3)ccc12` [Compound S8, Cbz-(4-Pyr)Ala-hPhe-AMC] (Cbz-[4Pal]-[hPhe]-{AMC}): in experiment [2], the Km amounted to 4.6 µM; the kcat is 5.3 s⁻¹ and 5.3 ± 0.2 s⁻¹; the kcat/Km came to 1.1e+06 ± 100000 M⁻¹ s⁻¹; the kcat rel came out at 0.55.

As for `Cc1cc(=O)oc2cc(NC(=O)C(CCc3ccccc3)NC(=O)C(Cc3ccccc3)NC(=O)N3CCN(C)CC3)ccc12` (stereo not drawn) [Compound S7, NMePip-Phe-hPhe-AMC], in experiment [2], the Km came to 3.1 ± 0.3 µM; the kcat is 4.0 ± 0.1 s⁻¹; the specificity constant (kcat/Km) was 1.3e+06 M⁻¹ s⁻¹ and 1.3e+06 ± 100000 M⁻¹ s⁻¹; the kcat rel was found to be 0.42.

`NC(=O)/C=C/[C@H](Cc1ccccc1)NC(=O)[C@H](Cc1ccccc1)NC(=O)OCc1ccccc1` [Compound 2, Benzyl ((S)-1-(((S,E)-5-Amino-5-oxo-1-phenylpent-3-en-2-yl)-amino)-1-oxo-3-phenylpropan-2-yl)carbamate]: the Ki in experiment [1] (setting [4]) is 37 ± 2 µM. In addition, the kinact/KI in experiment [1] (25° C.) was 22 M⁻¹ s⁻¹ and 21.7 ± 0.8 M⁻¹ s⁻¹.

For `C[C@@H](/C=C/c1ccccn1)NC(=O)[C@H](Cc1ccccc1)NC(=O)OCc1ccccc1` [Compound 19, Benzyl ((S)-1-Oxo-3-phenyl-1-(((S,E)-4-(pyridin-2-yl)but-3-en-2-yl)amino)propan-2-yl)carbamate], the Ki in experiment [1] (setting [5]) was found to be 4.8 ± 0.2 µM.
